{"source": "the kinase profiling compilation of Christmann-Franck et al. (2016)", "test_in_all_cases": "radiometric filter-binding kinase assay, Kinase HotSpot", "settings_in_all_cases": "compound 0.5 µM; ATP 10 µM", "key": {"ACVR1 (human)": {"molecular_target": "ACVR1 (human) (UniProt Q04771)"}, "AURKA (human)": {"molecular_target": "AURKA (human) (UniProt O14965)"}, "BLK (human)": {"molecular_target": "BLK (human) (UniProt P51451)"}, "BMX (human)": {"molecular_target": "BMX (human) (UniProt P51813)"}, "BRSK2 (human)": {"molecular_target": "BRSK2 (human) (UniProt Q8IWQ3)"}, "CAMK2G (human)": {"molecular_target": "CAMK2G (human) (UniProt Q13555)"}, "CAMK4 (human)": {"molecular_target": "CAMK4 (human) (UniProt Q16566)"}, "CDK1 CCNB1 (human)": {"molecular_target": "CDK1 CCNB1 (human) (UniProt P06493+P14635)"}, "CHEK2 (human)": {"molecular_target": "CHEK2 (human) (UniProt O96017)"}, "CLK4 (human)": {"molecular_target": "CLK4 (human) (UniProt Q9HAZ1)"}, "DAPK2 (human)": {"molecular_target": "DAPK2 (human) (UniProt Q9UIK4)"}, "DAPK3 (human)": {"molecular_target": "DAPK3 (human) (UniProt O43293)", "sequence (O43293 whole entry, looked up)": "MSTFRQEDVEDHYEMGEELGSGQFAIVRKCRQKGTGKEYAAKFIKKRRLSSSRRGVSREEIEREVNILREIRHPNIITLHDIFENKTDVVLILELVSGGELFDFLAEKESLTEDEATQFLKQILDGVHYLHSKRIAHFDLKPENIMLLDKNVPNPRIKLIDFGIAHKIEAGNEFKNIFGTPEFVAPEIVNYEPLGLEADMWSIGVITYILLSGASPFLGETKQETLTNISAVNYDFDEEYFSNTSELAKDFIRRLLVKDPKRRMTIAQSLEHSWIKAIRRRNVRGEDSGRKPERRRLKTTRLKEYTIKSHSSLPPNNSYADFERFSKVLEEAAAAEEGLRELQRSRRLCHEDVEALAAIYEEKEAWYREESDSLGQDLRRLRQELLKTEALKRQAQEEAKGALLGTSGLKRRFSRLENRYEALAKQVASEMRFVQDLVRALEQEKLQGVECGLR"}, "DSTYK (human)": {"molecular_target": "DSTYK (human) (UniProt Q6XUX3)"}, "DYRK4 (human)": {"molecular_target": "DYRK4 (human) (UniProt Q9NR20)"}, "EPHA2 (human)": {"molecular_target": "EPHA2 (human) (UniProt P29317)"}, "EPHA3 (human)": {"molecular_target": "EPHA3 (human) (UniProt P29320)"}, "EPHB1 (human)": {"molecular_target": "EPHB1 (human) (UniProt P54762)"}, "FGFR2 (human)": {"molecular_target": "FGFR2 (human) (UniProt P21802)"}, "FLT1 (human)": {"molecular_target": "FLT1 (human) (UniProt P17948)"}, "FLT3 (human)": {"molecular_target": "FLT3 (human) (UniProt P36888)"}, "GRK5 (human)": {"molecular_target": "GRK5 (human) (UniProt P34947)", "sequence (P34947 whole entry, looked up)": "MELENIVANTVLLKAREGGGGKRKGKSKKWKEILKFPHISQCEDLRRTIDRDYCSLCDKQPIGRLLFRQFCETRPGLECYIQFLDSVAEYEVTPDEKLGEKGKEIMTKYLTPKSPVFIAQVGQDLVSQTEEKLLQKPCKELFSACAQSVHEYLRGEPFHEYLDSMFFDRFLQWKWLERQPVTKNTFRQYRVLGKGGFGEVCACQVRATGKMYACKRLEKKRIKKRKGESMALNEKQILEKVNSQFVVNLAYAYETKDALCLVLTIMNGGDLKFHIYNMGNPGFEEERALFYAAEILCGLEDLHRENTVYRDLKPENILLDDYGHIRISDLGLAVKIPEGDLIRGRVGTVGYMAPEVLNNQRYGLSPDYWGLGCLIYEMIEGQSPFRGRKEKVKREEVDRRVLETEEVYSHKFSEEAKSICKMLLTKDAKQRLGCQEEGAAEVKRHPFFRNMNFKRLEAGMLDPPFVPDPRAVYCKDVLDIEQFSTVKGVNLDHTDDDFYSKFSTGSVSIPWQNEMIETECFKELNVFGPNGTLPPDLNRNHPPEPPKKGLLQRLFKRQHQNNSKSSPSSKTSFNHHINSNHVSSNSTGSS"}, "JAK3 JH1 JH2 (human)": {"molecular_target": "JAK3 JH1 JH2 (human) (UniProt P52333)"}, "MAP2K2 (human)": {"molecular_target": "MAP2K2 (human) (UniProt P36507)"}, "MAP4K5 (human)": {"molecular_target": "MAP4K5 (human) (UniProt Q9Y4K4)", "sequence (Q9Y4K4 whole entry, looked up)": "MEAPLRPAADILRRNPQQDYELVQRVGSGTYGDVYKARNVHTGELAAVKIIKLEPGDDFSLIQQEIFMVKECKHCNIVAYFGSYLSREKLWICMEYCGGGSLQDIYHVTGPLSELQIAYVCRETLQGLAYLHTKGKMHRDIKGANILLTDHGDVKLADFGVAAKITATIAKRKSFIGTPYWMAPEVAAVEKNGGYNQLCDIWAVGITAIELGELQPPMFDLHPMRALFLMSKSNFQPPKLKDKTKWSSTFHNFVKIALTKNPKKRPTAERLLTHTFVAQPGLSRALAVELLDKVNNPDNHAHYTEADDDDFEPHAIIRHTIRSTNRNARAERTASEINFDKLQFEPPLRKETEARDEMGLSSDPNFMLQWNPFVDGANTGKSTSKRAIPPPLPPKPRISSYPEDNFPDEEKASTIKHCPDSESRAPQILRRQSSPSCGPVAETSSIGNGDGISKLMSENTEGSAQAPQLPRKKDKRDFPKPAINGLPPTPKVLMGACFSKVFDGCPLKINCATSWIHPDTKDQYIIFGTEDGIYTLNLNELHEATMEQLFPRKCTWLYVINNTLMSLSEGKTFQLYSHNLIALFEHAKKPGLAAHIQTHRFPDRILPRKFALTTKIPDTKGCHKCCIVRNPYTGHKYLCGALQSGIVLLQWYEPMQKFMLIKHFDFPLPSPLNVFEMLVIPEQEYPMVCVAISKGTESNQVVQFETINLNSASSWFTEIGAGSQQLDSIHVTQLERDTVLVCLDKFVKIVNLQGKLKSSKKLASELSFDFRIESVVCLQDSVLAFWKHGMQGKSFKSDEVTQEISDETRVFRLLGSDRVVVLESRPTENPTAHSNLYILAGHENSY"}, "MAPK9 (human)": {"molecular_target": "MAPK9 (human) (UniProt P45984)"}, "MARK3 (human)": {"molecular_target": "MARK3 (human) (UniProt P27448)"}, "MATK (human)": {"molecular_target": "MATK (human) (UniProt P42679)", "sequence (P42679 whole entry, looked up)": "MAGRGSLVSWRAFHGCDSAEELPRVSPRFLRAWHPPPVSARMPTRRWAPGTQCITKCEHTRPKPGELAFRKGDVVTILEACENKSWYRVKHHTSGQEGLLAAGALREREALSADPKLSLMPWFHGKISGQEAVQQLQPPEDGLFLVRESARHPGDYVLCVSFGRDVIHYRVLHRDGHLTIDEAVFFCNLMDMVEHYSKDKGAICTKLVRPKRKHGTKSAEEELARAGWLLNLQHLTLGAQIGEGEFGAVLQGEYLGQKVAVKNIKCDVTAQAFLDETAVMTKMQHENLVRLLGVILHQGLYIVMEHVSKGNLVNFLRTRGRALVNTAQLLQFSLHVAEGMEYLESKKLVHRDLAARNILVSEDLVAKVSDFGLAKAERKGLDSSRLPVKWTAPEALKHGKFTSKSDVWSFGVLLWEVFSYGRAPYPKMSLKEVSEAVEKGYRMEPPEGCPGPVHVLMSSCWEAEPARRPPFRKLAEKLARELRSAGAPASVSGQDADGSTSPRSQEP"}, "MERTK (human)": {"molecular_target": "MERTK (human) (UniProt Q12866)", "sequence (Q12866 whole entry, looked up)": "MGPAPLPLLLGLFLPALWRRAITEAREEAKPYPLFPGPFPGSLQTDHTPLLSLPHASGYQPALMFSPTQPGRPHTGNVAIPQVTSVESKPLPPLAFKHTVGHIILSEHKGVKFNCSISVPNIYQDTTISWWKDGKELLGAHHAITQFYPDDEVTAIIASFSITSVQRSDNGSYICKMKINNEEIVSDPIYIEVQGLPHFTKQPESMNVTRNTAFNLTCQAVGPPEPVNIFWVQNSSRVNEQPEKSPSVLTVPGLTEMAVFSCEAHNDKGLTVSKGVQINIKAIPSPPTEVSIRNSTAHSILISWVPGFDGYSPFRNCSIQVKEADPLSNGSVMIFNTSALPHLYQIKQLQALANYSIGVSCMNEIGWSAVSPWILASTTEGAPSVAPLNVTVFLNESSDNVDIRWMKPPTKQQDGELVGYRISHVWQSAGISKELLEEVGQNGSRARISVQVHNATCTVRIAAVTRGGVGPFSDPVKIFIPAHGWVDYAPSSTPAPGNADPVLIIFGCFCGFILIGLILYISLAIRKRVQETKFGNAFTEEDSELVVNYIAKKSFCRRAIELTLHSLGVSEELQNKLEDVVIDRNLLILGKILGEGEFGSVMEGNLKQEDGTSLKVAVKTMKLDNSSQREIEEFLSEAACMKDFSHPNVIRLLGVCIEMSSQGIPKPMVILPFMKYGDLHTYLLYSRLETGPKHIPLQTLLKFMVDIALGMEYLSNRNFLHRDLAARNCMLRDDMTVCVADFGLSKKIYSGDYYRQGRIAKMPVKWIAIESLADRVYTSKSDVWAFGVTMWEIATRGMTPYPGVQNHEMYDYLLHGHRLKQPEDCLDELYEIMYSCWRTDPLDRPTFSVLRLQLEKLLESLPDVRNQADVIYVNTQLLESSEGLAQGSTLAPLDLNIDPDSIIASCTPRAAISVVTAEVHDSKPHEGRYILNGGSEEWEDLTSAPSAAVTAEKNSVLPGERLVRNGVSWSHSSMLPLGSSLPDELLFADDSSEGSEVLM"}, "NLK (human)": {"molecular_target": "NLK (human) (UniProt Q9UBE8)", "sequence (Q9UBE8 whole entry, looked up)": "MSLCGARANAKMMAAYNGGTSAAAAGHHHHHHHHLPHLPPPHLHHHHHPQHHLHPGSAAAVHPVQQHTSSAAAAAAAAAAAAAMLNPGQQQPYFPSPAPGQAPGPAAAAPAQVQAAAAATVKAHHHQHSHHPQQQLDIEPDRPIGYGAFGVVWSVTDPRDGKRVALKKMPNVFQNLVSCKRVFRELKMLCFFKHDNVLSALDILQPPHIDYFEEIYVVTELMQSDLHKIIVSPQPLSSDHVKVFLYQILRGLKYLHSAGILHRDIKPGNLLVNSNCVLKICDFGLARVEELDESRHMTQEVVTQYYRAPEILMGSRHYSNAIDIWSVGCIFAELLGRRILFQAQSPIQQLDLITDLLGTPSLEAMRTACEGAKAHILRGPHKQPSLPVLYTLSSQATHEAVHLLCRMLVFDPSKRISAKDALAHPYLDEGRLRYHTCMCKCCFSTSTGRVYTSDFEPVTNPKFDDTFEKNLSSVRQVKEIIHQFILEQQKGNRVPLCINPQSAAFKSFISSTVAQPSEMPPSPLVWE"}, "NTRK2 (human)": {"molecular_target": "NTRK2 (human) (UniProt Q16620)"}, "PAK2 (human)": {"molecular_target": "PAK2 (human) (UniProt Q13177)"}, "PAK3 (human)": {"molecular_target": "PAK3 (human) (UniProt O75914)"}, "PLK2 (human)": {"molecular_target": "PLK2 (human) (UniProt Q9NYY3)"}, "PRKCD (human)": {"molecular_target": "PRKCD (human) (UniProt Q05655)"}, "PRKCG (human)": {"molecular_target": "PRKCG (human) (UniProt P05129)"}, "PRKG2 (human)": {"molecular_target": "PRKG2 (human) (UniProt Q13237)", "sequence (Q13237 whole entry, looked up)": "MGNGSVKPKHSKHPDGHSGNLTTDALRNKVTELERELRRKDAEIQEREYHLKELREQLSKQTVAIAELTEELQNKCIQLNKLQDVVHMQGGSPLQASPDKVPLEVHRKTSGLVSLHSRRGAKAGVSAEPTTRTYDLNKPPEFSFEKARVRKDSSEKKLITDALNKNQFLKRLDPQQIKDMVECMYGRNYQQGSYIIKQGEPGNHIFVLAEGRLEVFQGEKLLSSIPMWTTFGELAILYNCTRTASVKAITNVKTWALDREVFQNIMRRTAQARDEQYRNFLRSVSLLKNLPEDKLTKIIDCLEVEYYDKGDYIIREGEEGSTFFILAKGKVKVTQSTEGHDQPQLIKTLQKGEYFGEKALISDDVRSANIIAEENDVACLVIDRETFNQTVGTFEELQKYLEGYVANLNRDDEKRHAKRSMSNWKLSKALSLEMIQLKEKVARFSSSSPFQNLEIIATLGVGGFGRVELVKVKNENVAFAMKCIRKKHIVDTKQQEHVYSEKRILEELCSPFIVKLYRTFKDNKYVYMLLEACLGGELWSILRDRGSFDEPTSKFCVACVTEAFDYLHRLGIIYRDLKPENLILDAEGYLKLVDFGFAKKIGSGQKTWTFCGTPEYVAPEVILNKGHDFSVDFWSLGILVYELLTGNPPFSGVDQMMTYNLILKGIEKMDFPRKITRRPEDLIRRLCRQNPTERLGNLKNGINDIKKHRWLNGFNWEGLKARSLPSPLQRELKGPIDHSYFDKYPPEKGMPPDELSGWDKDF"}, "ROCK2 (human)": {"molecular_target": "ROCK2 (human) (UniProt O75116)"}, "STK33 (human)": {"molecular_target": "STK33 (human) (UniProt Q9BYT3)"}, "TEC (human)": {"molecular_target": "TEC (human) (UniProt P42680)"}, "ULK1 (human)": {"molecular_target": "ULK1 (human) (UniProt O75385)"}, "ULK2 (human)": {"molecular_target": "ULK2 (human) (UniProt Q8IYT8)"}}, "data": [{"smiles": "CNC(=O)c1cc(Oc2ccc(NC(=O)Nc3ccc(Cl)c(C(F)(F)F)c3)cc2)ccn1", "values": [{"measurement": "residual activity", "setting": "ACVR1 (human)", "value": 98.7, "unit": "%"}, {"measurement": "residual activity", "setting": "AURKA (human)", "value": 103, "unit": "%"}, {"measurement": "residual activity", "setting": "BLK (human)", "value": 99.1, "unit": "%"}, {"measurement": "residual activity", "setting": "BMX (human)", "value": 93.3, "unit": "%"}, {"measurement": "residual activity", "setting": "BRSK2 (human)", "value": 103, "unit": "%"}, {"measurement": "residual activity", "setting": "CAMK2G (human)", "value": 108, "unit": "%"}, {"measurement": "residual activity", "setting": "CAMK4 (human)", "value": 107, "unit": "%"}, {"measurement": "residual activity", "setting": "CDK1 CCNB1 (human)", "value": 98.5, "unit": "%"}, {"measurement": "residual activity", "setting": "CHEK2 (human)", "value": 102, "unit": "%"}, {"measurement": "residual activity", "setting": "CLK4 (human)", "value": 95.2, "unit": "%"}, {"measurement": "residual activity", "setting": "DAPK2 (human)", "value": 111, "unit": "%"}, {"measurement": "residual activity", "setting": "DAPK3 (human)", "value": 92.9, "unit": "%"}, {"measurement": "residual activity", "setting": "DSTYK (human)", "value": 97.7, "unit": "%"}, {"measurement": "residual activity", "setting": "DYRK4 (human)", "value": 105, "unit": "%"}, {"measurement": "residual activity", "setting": "EPHA2 (human)", "value": 83.8, "unit": "%"}, {"measurement": "residual activity", "setting": "EPHA3 (human)", "value": 95.5, "unit": "%"}, {"measurement": "residual activity", "setting": "EPHB1 (human)", "value": 102, "unit": "%"}, {"measurement": "residual activity", "setting": "FGFR2 (human)", "value": 72.7, "unit": "%"}, {"measurement": "residual activity", "setting": "FLT1 (human)", "value": 50.5, "unit": "%"}, {"measurement": "residual activity", "setting": "FLT3 (human)", "value": 9.22, "unit": "%"}, {"measurement": "residual activity", "setting": "GRK5 (human)", "value": 97.8, "unit": "%"}, {"measurement": "residual activity", "setting": "JAK3 JH1 JH2 (human)", "value": 99.4, "unit": "%"}, {"measurement": "residual activity", "setting": "MAP2K2 (human)", "value": 89.7, "unit": "%"}, {"measurement": "residual activity", "setting": "MAP4K5 (human)", "value": 57, "unit": "%"}, {"measurement": "residual activity", "setting": "MAPK9 (human)", "value": 94.8, "unit": "%"}, {"measurement": "residual activity", "setting": "MARK3 (human)", "value": 103, "unit": "%"}, {"measurement": "residual activity", "setting": "MATK (human)", "value": 114, "unit": "%"}, {"measurement": "residual activity", "setting": "MERTK (human)", "value": 88.2, "unit": "%"}, {"measurement": "residual activity", "setting": "NLK (human)", "value": 99.1, "unit": "%"}, {"measurement": "residual activity", "setting": "NTRK2 (human)", "value": 90, "unit": "%"}, {"measurement": "residual activity", "setting": "PAK2 (human)", "value": 101, "unit": "%"}, {"measurement": "residual activity", "setting": "PAK3 (human)", "value": 103, "unit": "%"}, {"measurement": "residual activity", "setting": "PLK2 (human)", "value": 101, "unit": "%"}, {"measurement": "residual activity", "setting": "PRKCD (human)", "value": 104, "unit": "%"}, {"measurement": "residual activity", "setting": "PRKCG (human)", "value": 94.7, "unit": "%"}, {"measurement": "residual activity", "setting": "PRKG2 (human)", "value": 90.9, "unit": "%"}, {"measurement": "residual activity", "setting": "ROCK2 (human)", "value": 101, "unit": "%"}, {"measurement": "residual activity", "setting": "STK33 (human)", "value": 83.9, "unit": "%"}, {"measurement": "residual activity", "setting": "TEC (human)", "value": 101, "unit": "%"}, {"measurement": "residual activity", "setting": "ULK1 (human)", "value": 94.3, "unit": "%"}, {"measurement": "residual activity", "setting": "ULK2 (human)", "value": 106, "unit": "%"}]}]}
